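Grown in 96-well plates, cells were treated for 48 hours with each compound at five concentrations. Insufficient inhibition: endpoint recorded as highest concentration tested. GI50 is the concentration that inhibits growth by half.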 Calls of active or inactive are those of the source. Cut-off read from the data, not from the text of the source: active = GI50 up to about 1.1 µM and inactive = higher.
Key:
Experiment in all cases: NCI-60 cell line screen, 48 h
[1] = system: SNB-19
[2] = system: UACC-62
[3] = system: CCRF-CEM
[4] = system: HOP-92
[5] = system: MDA-MB-231
[6] = system: CAKI-1
[7] = system: EKVX
[8] = system: HT-29
[9] = system: A549
[10] = system: LOX IMVI
[11] = system: SF-295
[12] = system: OVCAR-4
[13] = system: A498
[14] = system: SW-620
[15] = system: COLO 205
[16] = system: SF-539
[17] = system: Malme-3M
[18] = system: SNB-75
[19] = system: MCF7

Structure (SMILES)	GI50 [1]	GI50 [2]	GI50 [3]	GI50 [4]	GI50 [5]	GI50 [6]	GI50 [7]	GI50 [8]	GI50 [9]	GI50 [10]	GI50 [11]	GI50 [12]	GI50 [13]	GI50 [14]	GI50 [15]	GI50 [16]	GI50 [17]	GI50 [18]	GI50 [19]
NS(=O)(=O)c1ccc(N2C(=O)C(=O)N(c3ccccc3)C2=S)cc1	> 100 µM (inactive)	> 100 µM (inactive)	> 100 µM (inactive)	23.6 µM (inactive)	> 100 µM (inactive)	> 100 µM (inactive)	93.8 µM (inactive)	> 100 µM (inactive)	> 100 µM (inactive)	> 100 µM (inactive)	> 100 µM (inactive)	30.6 µM (inactive)	> 100 µM (inactive)	> 100 µM (inactive)	> 100 µM (inactive)	> 100 µM (inactive)	> 100 µM (inactive)	74.3 µM (inactive)	–
C[n+]1c(-c2ccc(/C=N\Nc3ccnc(N/N=C/c4ccc(-c5cn6ccsc6[n+]5C)cc4)n3)cc2)cn2ccsc21	37.6 µM (inactive)	24.4 µM (inactive)	18.3 µM (inactive)	18.3 µM (inactive)	15.2 µM (inactive)	22.7 µM (inactive)	24.8 µM (inactive)	9.93 µM (inactive)	31.3 µM (inactive)	–	–	58.1 µM (inactive)	17.1 µM (inactive)	32.7 µM (inactive)	27.6 µM (inactive)	11.6 µM (inactive)	29.7 µM (inactive)	34 µM (inactive)	34.8 µM (inactive)
Cc1ccc(S(=O)(=O)NC(=O)Nc2cccc(S(N)(=O)=O)c2)cc1	> 100 µM (inactive)	> 100 µM (inactive)	–	> 100 µM (inactive)	> 100 µM (inactive)	> 100 µM (inactive)	> 100 µM (inactive)	> 100 µM (inactive)	> 100 µM (inactive)	> 100 µM (inactive)	> 100 µM (inactive)	> 100 µM (inactive)	> 100 µM (inactive)	> 100 µM (inactive)	> 100 µM (inactive)	> 100 µM (inactive)	> 100 µM (inactive)	> 100 µM (inactive)	> 100 µM (inactive)
c1ccc(CCN2CCc3[nH]c4ccccc4c3C2)cc1	20.8 µM (inactive)	> 10 µM (inactive)	32.6 µM (inactive)	11.9 µM (inactive)	33 µM (inactive)	–	33.4 µM (inactive)	14.1 µM (inactive)	24.6 µM (inactive)	19.5 µM (inactive)	15.1 µM (inactive)	40.4 µM (inactive)	13.9 µM (inactive)	16.1 µM (inactive)	> 10 µM (inactive)	22.8 µM (inactive)	17.1 µM (inactive)	29 µM (inactive)	18.8 µM (inactive)
O=C1c2ccccc2C(=O)c2sc(Nc3ccc(Cl)c(Cl)c3)nc21	6.04 µM (inactive)	2.59 µM (inactive)	1.85 µM (inactive)	13.3 µM (inactive)	2.17 µM (inactive)	3.07 µM (inactive)	14.3 µM (inactive)	19.7 µM (inactive)	23.5 µM (inactive)	2.17 µM (inactive)	15.2 µM (inactive)	2.21 µM (inactive)	16.6 µM (inactive)	1.61 µM (inactive)	8 µM (inactive)	4.38 µM (inactive)	4.16 µM (inactive)	8.05 µM (inactive)	–
Cc1ccc(/N=C2\SC(=NN(C)C)S\C2=N/c2ccc(C)cc2)cc1	> 100 µM (inactive)	> 100 µM (inactive)	> 100 µM (inactive)	> 100 µM (inactive)	> 100 µM (inactive)	> 100 µM (inactive)	> 100 µM (inactive)	> 100 µM (inactive)	> 100 µM (inactive)	> 100 µM (inactive)	> 100 µM (inactive)	> 100 µM (inactive)	> 100 µM (inactive)	> 100 µM (inactive)	> 100 µM (inactive)	> 100 µM (inactive)	> 100 µM (inactive)	> 100 µM (inactive)	–
O=C(O)COc1ccc(C(=O)/C(SS/C(C(=O)c2ccc(OCC(=O)O)c(Cl)c2Cl)=C2\C=C(c3ccc(Cl)cc3)SS2)=C2/C=C(c3ccc(Cl)cc3)SS2)c(Cl)c1Cl	8.99 µM (inactive)	9.51 µM (inactive)	2.29 µM (inactive)	4.22 µM (inactive)	–	28.1 µM (inactive)	57.1 µM (inactive)	34.5 µM (inactive)	21.4 µM (inactive)	3.93 µM (inactive)	18.2 µM (inactive)	5.27 µM (inactive)	31.1 µM (inactive)	0.435 µM (active)	0.339 µM (active)	5.9 µM (inactive)	33.7 µM (inactive)	11.1 µM (inactive)	–
N=C(CSSCC(=N)NCC12CC3CC(CC(C3)C1)C2)NCC12CC3CC(CC(C3)C1)C2	19.2 µM (inactive)	13.3 µM (inactive)	–	16.3 µM (inactive)	2.12 µM (inactive)	18.7 µM (inactive)	–	13.6 µM (inactive)	13.7 µM (inactive)	–	14.2 µM (inactive)	14.4 µM (inactive)	25.5 µM (inactive)	17.5 µM (inactive)	19.2 µM (inactive)	17.7 µM (inactive)	16.8 µM (inactive)	20.8 µM (inactive)	29.7 µM (inactive)
C=C(C)[C@H](O)C(O)CC(C)[C@@H]1CCC23CC12CCC1[C@@]2(C)CCC(OC(C)=O)C(C)(C)C2CC(OC2OC(COC(C)=O)C(O)C(O)C2O)[C@]13C (some centres undefined)	5.9 µM (inactive)	3.84 µM (inactive)	2.62 µM (inactive)	5.37 µM (inactive)	–	6.22 µM (inactive)	6.67 µM (inactive)	3.06 µM (inactive)	6.21 µM (inactive)	4.86 µM (inactive)	6.59 µM (inactive)	7.71 µM (inactive)	7.98 µM (inactive)	6.14 µM (inactive)	6.61 µM (inactive)	6.67 µM (inactive)	7.91 µM (inactive)	3.4 µM (inactive)	–
CC(C)C(=O)Nc1nc2[nH]cnc2c(=O)[nH]1	> 100 µM (inactive)	> 100 µM (inactive)	> 100 µM (inactive)	> 100 µM (inactive)	–	> 100 µM (inactive)	> 100 µM (inactive)	> 100 µM (inactive)	> 100 µM (inactive)	> 100 µM (inactive)	> 100 µM (inactive)	> 100 µM (inactive)	> 100 µM (inactive)	> 100 µM (inactive)	> 100 µM (inactive)	> 100 µM (inactive)	> 100 µM (inactive)	> 100 µM (inactive)	–
CCCCSN1C(=O)c2ccccc2C1=S	> 100 µM (inactive)	55 µM (inactive)	15.9 µM (inactive)	41.1 µM (inactive)	–	32.6 µM (inactive)	> 100 µM (inactive)	29.4 µM (inactive)	> 100 µM (inactive)	54.2 µM (inactive)	39.3 µM (inactive)	76.6 µM (inactive)	> 100 µM (inactive)	32.9 µM (inactive)	62.4 µM (inactive)	33.3 µM (inactive)	63.7 µM (inactive)	72.4 µM (inactive)	–
N=C(N)SCc1ccc(N=C=S)cc1	13.8 µM (inactive)	11.4 µM (inactive)	6.93 µM (inactive)	11.7 µM (inactive)	7.74 µM (inactive)	12.7 µM (inactive)	15.9 µM (inactive)	15.1 µM (inactive)	16.3 µM (inactive)	12.8 µM (inactive)	17.1 µM (inactive)	14.3 µM (inactive)	13.9 µM (inactive)	12.9 µM (inactive)	13.4 µM (inactive)	14.1 µM (inactive)	14.3 µM (inactive)	10.2 µM (inactive)	–
COc1ccc(-c2nc3cc(C(F)(F)F)ccc3n2CC2CCCN3CCCCC23)cc1 (centres undefined)	–	–	13.6 µM (inactive)	14.8 µM (inactive)	14.3 µM (inactive)	21 µM (inactive)	12.1 µM (inactive)	13.3 µM (inactive)	–	15 µM (inactive)	19.2 µM (inactive)	17.1 µM (inactive)	13.4 µM (inactive)	15.2 µM (inactive)	–	16.8 µM (inactive)	–	15.5 µM (inactive)	13.2 µM (inactive)
ON=C1CCC(c2ccccc2)CC1 (centres undefined)	> 100 µM (inactive)	> 100 µM (inactive)	> 100 µM (inactive)	> 100 µM (inactive)	–	> 100 µM (inactive)	> 100 µM (inactive)	> 100 µM (inactive)	> 100 µM (inactive)	> 100 µM (inactive)	> 100 µM (inactive)	> 100 µM (inactive)	> 100 µM (inactive)	> 100 µM (inactive)	> 100 µM (inactive)	> 100 µM (inactive)	> 100 µM (inactive)	> 100 µM (inactive)	–
C(=C\c1ccc2ccccc2c1Nc1ccccc1)/c1ccccc1	28 µM (inactive)	51.9 µM (inactive)	11.9 µM (inactive)	18.2 µM (inactive)	–	23.2 µM (inactive)	> 100 µM (inactive)	29.6 µM (inactive)	49.3 µM (inactive)	> 66.4 µM (inactive)	41.9 µM (inactive)	8.15 µM (inactive)	18.3 µM (inactive)	60.3 µM (inactive)	> 71.3 µM (inactive)	32.2 µM (inactive)	33.2 µM (inactive)	15.7 µM (inactive)	–
CCNC1=Nc2ccc(Cl)cc2C(c2ccccc2)=NN1	41.7 µM (inactive)	14.6 µM (inactive)	38.4 µM (inactive)	24.4 µM (inactive)	–	15 µM (inactive)	45.9 µM (inactive)	15.8 µM (inactive)	35.7 µM (inactive)	18.9 µM (inactive)	19.2 µM (inactive)	31.6 µM (inactive)	29.9 µM (inactive)	18 µM (inactive)	16.3 µM (inactive)	19.8 µM (inactive)	16.9 µM (inactive)	19 µM (inactive)	–

Reference: ChEMBL document CHEMBL1201862, “PubChem BioAssay data set” (2004)
